Some test systems named below: Malme-3M; A549; SK-MEL-28; OVCAR-3; NCI-H226; CAKI-1; HOP-92; SW-620; SF-268; SK-MEL-2; HCC 2998; LOX IMVI; IGROV-1; KM12; M14; RXF 393; 786-0; SR; MDA-MB-231.
What all share (assay): growth of human tumour cells (NCI), 48 h

The values below come from ChEMBL document CHEMBL1201862, “PubChem BioAssay data set” (2004).

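Exposure lasted 48 hours, with cells grown in 96-well plates and compounds tested at five concentrations. GI50: concentration for 50% inhibition of growth.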 Activity calls are given as the source filed them. Cut-off read from the data, not from the text of the source: active = GI50 up to about 1.1 µM and inactive = higher. Some results are limits rather than exact numbers.

Turning to `CCOC(=O)C(=O)Nc1ccccc1C(F)(F)F`, the GI50 in the assay on Malme-3M, in the assay on A549, in the assay on SK-MEL-28, with OVCAR-3, in the assay on NCI-H226 and with CAKI-1 was > 100 µM (inactive) in each case. The GI50 in the assay on HOP-92, with SW-620, in the assay on SF-268, with SK-MEL-2, with HCC 2998 and in the assay with LOX IMVI was > 100 µM (inactive) each time. Further, the GI50 in the assay on IGROV-1 is > 100 µM (inactive); in the assay on KM12 it was > 100 µM (inactive); in the assay on M14, > 100 µM (inactive); with RXF 393, > 100 µM (inactive); in the assay on 786-0, > 100 µM (inactive); in the assay on SR, 2.39 µM (inactive).
Regarding `O=C(/C=C\c1ccc(Cl)c(Cl)c1)c1ccc(Cl)cc1Cl`, the GI50 in the assay with Malme-3M is 17.9 µM (inactive); in the assay on A549, 22.6 µM (inactive); in the assay with SK-MEL-28 it was > 10 µM (inactive); in the assay on OVCAR-3, 18.2 µM (inactive); in the assay on NCI-H226, 9.51 µM (inactive); in the assay on CAKI-1 it was 27.3 µM (inactive). Besides, the GI50 was > 10 µM (inactive) with HOP-92; 2.69 µM (inactive) in the assay on SW-620; 21.6 µM (inactive) with SF-268; 19.7 µM (inactive) in the assay on SK-MEL-2; 16.7 µM (inactive) with HCC 2998; 5.74 µM (inactive) in the assay on LOX IMVI. Further, the GI50 in the assay with IGROV-1 is 18 µM (inactive); in the assay on KM12, 8.38 µM (inactive); with M14 it was 21.9 µM (inactive); in the assay on RXF 393, 16.1 µM (inactive); in the assay with 786-0, 17.4 µM (inactive); in the assay with SR it was 3.09 µM (inactive).
On to `Cc1c(Cl)cccc1NC(=O)c1cccc([N+](=O)[O-])c1O`, for which the GI50 in the assay on Malme-3M is 6.25 µM (inactive); in the assay with A549 it was 11.4 µM (inactive); with SK-MEL-28 it was 9.68 µM (inactive); in the assay with OVCAR-3 it was 5.71 µM (inactive); in the assay on NCI-H226, 15.5 µM (inactive); in the assay on CAKI-1 it was 9.59 µM (inactive). Also, the GI50 is 2.37 µM (inactive) in the assay with HOP-92; 28.2 µM (inactive) in the assay on SW-620; 20.3 µM (inactive) in the assay on SF-268; 10.7 µM (inactive) with SK-MEL-2; 7.18 µM (inactive) in the assay with HCC 2998; 5.78 µM (inactive) in the assay on LOX IMVI. Also, the GI50 is 5.83 µM (inactive) in the assay with IGROV-1; 21.4 µM (inactive) in the assay with KM12; 16.8 µM (inactive) with M14; 4.29 µM (inactive) with RXF 393; 20.5 µM (inactive) with 786-0; 22.3 µM (inactive) with SR.
`CCc1nc(Cl)c(Cl)c(Cl)n1`: the GI50 in the assay on Malme-3M, in the assay on A549, in the assay on SK-MEL-28, in the assay on OVCAR-3, in the assay with NCI-H226 and with SW-620 was > 100 µM (inactive) in each case. For the same compound, the GI50 in the assay on SF-268, in the assay on SK-MEL-2, in the assay on HCC 2998, in the assay with LOX IMVI, in the assay on IGROV-1 and in the assay on KM12 was > 100 µM (inactive) in each case. In addition, the GI50 in the assay with M14, in the assay on RXF 393, in the assay with 786-0 and with SR was > 100 µM (inactive) throughout.
On to `CC(C)(C)N1CC2(CCCCC2)C1=O`, for which the GI50 with Malme-3M, with A549, in the assay on SK-MEL-28, in the assay with OVCAR-3, in the assay with NCI-H226 and with CAKI-1 was > 100 µM (inactive) in each case. Also, the GI50 in the assay on HOP-92 is > 100 µM (inactive); in the assay on SW-620 it was > 100 µM (inactive); in the assay with SF-268, 99.1 µM (inactive); with SK-MEL-2, > 100 µM (inactive); in the assay on HCC 2998, > 100 µM (inactive); in the assay on LOX IMVI it was > 100 µM (inactive). For the same compound, the GI50 with IGROV-1, in the assay with KM12, in the assay on M14, in the assay with RXF 393, in the assay on 786-0 and in the assay on SR was > 100 µM (inactive) in each case.
On to `CCCc1cn2c(/C=N/NC(=N)N)c(-c3cccc([N+](=O)[O-])c3)nc2s1`, for which the GI50 with Malme-3M was 1.3 µM (inactive); in the assay with A549 it was 1.73 µM (inactive); in the assay with SK-MEL-28, 1.43 µM (inactive); in the assay on OVCAR-3, 1.8 µM (inactive); in the assay with NCI-H226, 1.66 µM (inactive); with CAKI-1, 2.01 µM (inactive). Moreover, the GI50 was 11.1 µM (inactive) in the assay with HOP-92; 3.08 µM (inactive) with SW-620; 2.25 µM (inactive) in the assay with SF-268; 2.1 µM (inactive) with SK-MEL-2; 1.47 µM (inactive) in the assay on MDA-MB-231; 2.07 µM (inactive) in the assay with LOX IMVI. The GI50 with IGROV-1 was 1.92 µM (inactive); in the assay on KM12 it was 1.76 µM (inactive); in the assay on M14 it was 2.02 µM (inactive); in the assay with RXF 393, 1.89 µM (inactive); in the assay with 786-0, 1.95 µM (inactive); in the assay with SR it was 2.09 µM (inactive).
In the case of `CC[P+](C)(C)CC`, the GI50 in the assay on Malme-3M, in the assay on A549, with SK-MEL-28, in the assay with OVCAR-3, in the assay with NCI-H226 and in the assay with HOP-92 was > 100 µM (inactive) throughout. Also, the GI50 in the assay with SW-620 was > 100 µM (inactive); in the assay with SF-268, > 100 µM (inactive); with SK-MEL-2, 82.8 µM (inactive); in the assay on HCC 2998 it was > 100 µM (inactive); with LOX IMVI, > 100 µM (inactive); with IGROV-1, > 100 µM (inactive). Moreover, the GI50 with KM12, in the assay with M14, with RXF 393, in the assay on 786-0 and in the assay on SR was > 100 µM (inactive) each time.
On to `Cc1cn(C2CC(O)C(CO)O2)c(=O)n2nnnc12` (configuration not stated), for which the GI50 with Malme-3M, with A549, with SK-MEL-28, in the assay on OVCAR-3, in the assay on NCI-H226 and in the assay on HOP-92 was > 100 µM (inactive) throughout. The GI50 in the assay with SW-620, in the assay with SF-268, with SK-MEL-2, with HCC 2998, with LOX IMVI and in the assay on IGROV-1 was > 100 µM (inactive) in each case. For the same compound, the GI50 in the assay on KM12, in the assay on M14, in the assay with 786-0 and with SR was > 100 µM (inactive) in each case.
Regarding `CC12CC(Sc3ccccc3N1)c1ccccc1O2` (configuration not stated), the GI50 in the assay on Malme-3M was 16.1 µM (inactive); in the assay with A549, 18.8 µM (inactive); in the assay with SK-MEL-28 it was 16.7 µM (inactive); in the assay on OVCAR-3, 16.4 µM (inactive); in the assay with CAKI-1 it was 19.2 µM (inactive); with HOP-92 it was 18.7 µM (inactive). The GI50 with SW-620 was 17.7 µM (inactive); in the assay with SF-268 it was 16.1 µM (inactive); in the assay on SK-MEL-2 it was 12.8 µM (inactive); with HCC 2998 it was 17.1 µM (inactive); in the assay with LOX IMVI, 13.7 µM (inactive); with IGROV-1, 21.9 µM (inactive). In addition, the GI50 with KM12 is 15.3 µM (inactive); with M14, 18.3 µM (inactive); in the assay with RXF 393 it was 15.9 µM (inactive); in the assay on 786-0, 17.7 µM (inactive); in the assay with SR it was 13.6 µM (inactive).
Take `CC(=O)O[C@H]1CC[C@@]2(C)C(CC[C@]3(C)C2CC[C@]2(C)Oc4c(C)cc(O)cc4C[C@@H]23)C1(C)C` (some centres not stated): the GI50 is 10.1 µM (inactive) with Malme-3M; 5.22 µM (inactive) in the assay on A549; 8.59 µM (inactive) with SK-MEL-28; 11.7 µM (inactive) with OVCAR-3; 15.9 µM (inactive) in the assay on NCI-H226; 8.99 µM (inactive) in the assay with CAKI-1. The GI50 with HOP-92 is 6.85 µM (inactive); in the assay with SW-620 it was 1.88 µM (inactive); with SF-268, 4.61 µM (inactive); with SK-MEL-2, 7.52 µM (inactive); with HCC 2998, 7.6 µM (inactive); in the assay with LOX IMVI it was 8.75 µM (inactive). Also, the GI50 was 13.5 µM (inactive) with IGROV-1; 6.71 µM (inactive) with KM12; 11.9 µM (inactive) with M14; 2.88 µM (inactive) in the assay on RXF 393; 1.99 µM (inactive) in the assay on 786-0; 2.67 µM (inactive) with SR.
As to `C=C1CC2OC2(C(=O)O[C@H]2CCC3[C@@H]4CCC5=CC(=O)CC[C@]5(C)C4CC[C@@]32C)C1=O` (some centres not stated), the GI50 in the assay with Malme-3M was 6.56 µM (inactive); in the assay with A549 it was 21.3 µM (inactive); in the assay on SK-MEL-28, 8.87 µM (inactive); in the assay with OVCAR-3, 8.51 µM (inactive); in the assay on NCI-H226, 22.9 µM (inactive); in the assay with CAKI-1 it was 11.9 µM (inactive). Also, the GI50 is 9.75 µM (inactive) in the assay on HOP-92; 3.4 µM (inactive) with SW-620; 8.41 µM (inactive) in the assay on SF-268; 6.07 µM (inactive) in the assay on SK-MEL-2; 31.6 µM (inactive) in the assay with HCC 2998; 7.94 µM (inactive) with LOX IMVI. Moreover, the GI50 in the assay with IGROV-1 was 10.9 µM (inactive); with KM12 it was 12.6 µM (inactive); in the assay on M14, 7.23 µM (inactive); with RXF 393, 4.43 µM (inactive); in the assay on 786-0, 2.04 µM (inactive); in the assay with SR, 0.805 µM (active).
